From US20210395645A1, “CLEANING LIQUID” (FUJIFILM Electronic Materials Co., Ltd., priority 2019, published 2021)

Source text: The following compounds were used as chelating agents in manufacture of cleaning liquids.

| Compound | pKa1 | pKa2 | pKa3 | pKa4 | pKa5 | pKa6 | pKa7 | pKa8 |
| --- | --- | --- | --- | --- | --- | --- | --- | --- |
| O=P(O)(O)CN(CCN(CP(=O)(O)O)CP(=O)(O)O)CP(=O)(O)O [EDTPO, N,N,N′,N′-Ethylenediaminetetrakis(methylenephosphonic acid)] | 1.46 | 2.72 | 5.06 | 6.18 | 6.63 | 7.43 | 9.22 | 10.6 |
| O=C(O)C(O)C(O)C(=O)O (stereo not drawn) [Tartaric acid] |  | 7.40 |  |  |  |  |  |  |
| CC(O)(P(=O)(O)O)P(=O)(O)O [HEDP, 1-Hydroxyethylidene-1,1′-diphosphonic acid] | 1.35 | 2.87 | 7.03 | 11.3 |  |  |  |  |
| O=C(O)CN(CCN(CC(=O)O)CC(=O)O)CCN(CC(=O)O)CC(=O)O [DTPA, Diethylenetriaminepentaacetic acid] | 2.14 | 2.38 | 4.26 | 8.60 | 10.53 |  |  |  |
| O=C(O)CC(O)(CC(=O)O)C(=O)O [Citric acid] |  |  | 6.71 |  |  |  |  |  |
| NCCC(=O)O [ALA, β-Alanine] | 2.35 | 9.87 |  |  |  |  |  |  |
| N=C(N)NCCC[C@H](N)C(=O)O [Arginine] | 1.82 | 9.01 | 12.48 |  |  |  |  |  |
| NCC(=O)O [Gly, Glycine] | 2.35 | 9.78 |  |  |  |  |  |  |
| O=C(O)CN(CCN(CC(=O)O)CC(=O)O)CC(=O)O [EDTA, Ethylenediaminetetraacetic acid] | 2.00 | 2.70 | 6.2 | 10.30 |  |  |  |  |
